Bridge positions count the residues as written; N and C are the ends. Square brackets hold non-standard residues; d marks the D form. Peptide text beside a SMILES is read from it. Hyp = O=C(O)[C@@H]1C[C@@H](O)CN1; Cit = NC(=O)NCCC[C@H](N)C(=O)O
How the values were obtained:
[1] = target: T1, hAMY3 receptor (Homo sapiens, UniProt O60896+P30988); experiment: cAMP assay for in vitro receptor activation, hAMY3-R; format: cell-based; conditions: cAMP assay, hAMY3 receptor; read-out: hAMY3R EC50
T1 sequence (P30988 25-474): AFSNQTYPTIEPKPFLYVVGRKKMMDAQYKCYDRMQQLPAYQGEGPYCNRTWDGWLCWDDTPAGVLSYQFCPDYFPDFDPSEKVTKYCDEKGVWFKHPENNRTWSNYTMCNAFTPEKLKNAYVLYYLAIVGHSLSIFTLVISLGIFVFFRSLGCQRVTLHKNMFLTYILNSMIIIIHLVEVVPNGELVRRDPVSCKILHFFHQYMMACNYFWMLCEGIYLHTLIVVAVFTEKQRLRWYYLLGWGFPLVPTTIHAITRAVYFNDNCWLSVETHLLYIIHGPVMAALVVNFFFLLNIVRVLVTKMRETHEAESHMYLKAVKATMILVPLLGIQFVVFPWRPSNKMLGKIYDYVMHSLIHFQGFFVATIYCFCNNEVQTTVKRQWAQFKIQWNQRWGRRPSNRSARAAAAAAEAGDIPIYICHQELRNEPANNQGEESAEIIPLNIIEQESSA
T1 sequence (O60896 24-148 partner): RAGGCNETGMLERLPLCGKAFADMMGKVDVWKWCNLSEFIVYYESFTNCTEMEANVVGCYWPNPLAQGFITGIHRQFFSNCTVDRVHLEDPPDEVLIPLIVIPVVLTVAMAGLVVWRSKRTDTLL
In short: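 Monoclonal cell line stably overexpressing human AMY3 receptor, 2000 cells/well in DPBS with 0.05% casein and 0.5 mM IBMX. Stimulated 30 min at room temperature with graded compound doses, human amylin as positive control. cAMP accumulation read by TR-FRET after one hour.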

[2] = target: hAM1 receptor (Homo sapiens, UniProt O60895+Q16602); experiment: cAMP assay for in vitro receptor activation, hAM1-R; format: cell-based; conditions: cAMP assay, hAM1 receptor; read-out: hAM1R EC50
hAM1 receptor, sequence (Q16602 23-461): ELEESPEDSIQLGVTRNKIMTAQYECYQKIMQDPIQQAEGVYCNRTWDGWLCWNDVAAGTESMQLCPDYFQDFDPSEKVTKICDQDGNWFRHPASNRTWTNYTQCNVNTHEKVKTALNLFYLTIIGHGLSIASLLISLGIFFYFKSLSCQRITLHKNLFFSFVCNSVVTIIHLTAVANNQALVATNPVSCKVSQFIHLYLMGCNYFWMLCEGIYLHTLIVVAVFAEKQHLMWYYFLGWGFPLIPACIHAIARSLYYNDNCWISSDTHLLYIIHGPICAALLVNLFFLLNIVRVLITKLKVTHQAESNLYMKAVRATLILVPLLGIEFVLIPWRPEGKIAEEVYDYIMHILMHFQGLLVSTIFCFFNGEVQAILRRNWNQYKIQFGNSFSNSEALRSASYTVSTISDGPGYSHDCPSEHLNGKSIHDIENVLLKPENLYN
hAM1 receptor, sequence (O60895 43-175 partner): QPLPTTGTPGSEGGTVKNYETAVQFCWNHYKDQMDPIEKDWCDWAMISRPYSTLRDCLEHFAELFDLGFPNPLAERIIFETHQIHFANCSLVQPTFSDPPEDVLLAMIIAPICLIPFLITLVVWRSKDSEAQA
In short: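 cAMP accumulation was measured in a monoclonal cell line stably overexpressing the hAM1 receptor. Frozen aliquots were thawed and plated at 8000 cells/well in DPBS containing 0.05% casein and 0.5 mM IBMX.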

[3] = Physical stability of peptide analogues (Thioflavin T fibrillation); format: physicochemical; conditions: maximum ThT signal normalized between hAMY maximum and buffer background; 40° C., shaking, four days; pH 7 per table title
In short: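 Samples are stressed at 40 °C for four days, being shaken at 700 rpm before each 10-min fluorescence reading of 4 μM Thioflavin T. Buffers were pH 4 acetate or pH 7 phosphate. Reported values are smoothed maximum ThT signals as a percentage of the hAMY-to-background range.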

Row | SMILES | EC50 [1] | EC50 [2] | Max ThT signal (%) [3]
1 | CC[C@H](C)[C@H](NC(=O)[C@H](CCC(N)=O)NC(=O)[C@H](Cc1c[nH]cn1)NC(=O)[C@H](C)NC(=O)[C@H](CC(C)C)NC(=O)[C@H](CCCNC(=N)N)NC(=O)[C@H](CCC(N)=O)NC(=O)[C@@H](NC(=O)[C@@H](NC(=O)[C@@H]1CSSC[C@H](NC(=O)CN)C(=O)N[C@@H](CCCNC(=N)N)C(=O)N[C@@H]([C@@H](C)O)C(=O)NCC(=O)N[C@@H]([C@@H](C)O)C(=O)N1)[C@@H](C)O)C(C)C)C(=O)N[C@@H](Cc1ccc(O)cc1)C(=O)N[C@@H](CCC(N)=O)C(=O)N[C@@H](Cc1ccccc1)C(=O)N[C@H](C(=O)N[C@@H](CC(=O)O)C(=O)N[C@@H](CCCCN)C(=O)N[C@@H](Cc1ccccc1)C(=O)N[C@@H](CCCCN)C(=O)N[C@@H](CC(=O)O)C(=O)N[C@@H](CC(N)=O)C(=O)N[C@H](C(=O)N[C@@H](C)C(=O)N1CCC[C@H]1C(=O)N[C@@H](CCCNC(=N)N)C(=O)N[C@@H](CO)C(=O)N[C@@H](CCCCN)C(=O)N[C@H](C(=O)N[C@@H](CO)C(=O)N1CCC[C@H]1C(=O)N[C@@H](CCC(N)=O)C(=O)N[C@@H](Cc1ccc(O)cc1)C(=O)N1C[C@H](O)C[C@H]1C(N)=O)[C@@H](C)CC)C(C)C)[C@@H](C)O [compound 186] (H-GCRTGTCTVQRLAHQIYQFTDKFKDNVAPRSKISPQY[Hyp]-NH2; disulfide 2-7; N-terminus assumed) | 0.091 nM | > 5000 nM | 0.600%
2 | CC[C@H](C)[C@H](NC(=O)[C@H](CCC(N)=O)NC(=O)[C@H](Cc1c[nH]cn1)NC(=O)[C@H](C)NC(=O)[C@H](CC(C)C)NC(=O)[C@H](CCCNC(=N)N)NC(=O)[C@H](CCC(N)=O)NC(=O)[C@@H](NC(=O)[C@@H](NC(=O)[C@@H]1CSSC[C@H](NC(=O)CN)C(=O)N[C@@H](CCCNC(=N)N)C(=O)N[C@@H](Cc2c[nH]c3ccccc23)C(=O)NCC(=O)N[C@@H]([C@@H](C)O)C(=O)N1)[C@@H](C)O)C(C)C)C(=O)N[C@@H](Cc1ccc(O)cc1)C(=O)N[C@@H](CCC(N)=O)C(=O)N[C@@H](Cc1ccccc1)C(=O)N[C@H](C(=O)N[C@@H](CC(=O)O)C(=O)N[C@@H](CCCCN)C(=O)N[C@@H](CC(=O)O)C(=O)N[C@@H](CCCCN)C(=O)N[C@@H](CC(=O)O)C(=O)N[C@@H](CC(N)=O)C(=O)N[C@H](C(=O)N[C@@H](C)C(=O)N1CCC[C@H]1C(=O)N[C@@H](CCCNC(=N)N)C(=O)N[C@@H](CO)C(=O)N[C@@H](CCCCN)C(=O)N[C@H](C(=O)N[C@@H](CO)C(=O)N1CCC[C@H]1C(=O)N[C@@H](CCC(N)=O)C(=O)N[C@H](C(=O)N1C[C@H](O)C[C@H]1C(N)=O)[C@@H](C)O)[C@@H](C)CC)C(C)C)[C@@H](C)O [compound 150] (H-GCRWGTCTVQRLAHQIYQFTDKDKDNVAPRSKISPQT[Hyp]-NH2; disulfide 2-7; N-terminus assumed) | 0.04 nM | > 5000 nM | 18.200%
3 | CC[C@H](C)[C@H](NC(=O)[C@H](CCC(N)=O)NC(=O)[C@H](Cc1c[nH]cn1)NC(=O)[C@H](C)NC(=O)[C@H](CC(C)C)NC(=O)[C@H](CCCNC(=N)N)NC(=O)[C@H](CCC(N)=O)NC(=O)[C@@H](NC(=O)[C@@H](NC(=O)[C@@H]1CSSC[C@H](NC(=O)[C@@H](N)CCCCN)C(=O)N[C@@H](CC(N)=O)C(=O)N[C@@H]([C@@H](C)O)C(=O)N[C@@H](C)C(=O)N[C@@H]([C@@H](C)O)C(=O)N1)[C@@H](C)O)C(C)C)C(=O)N[C@@H](Cc1ccc(O)cc1)C(=O)N[C@@H](CCC(N)=O)C(=O)N[C@@H](Cc1ccccc1)C(=O)N[C@H](C(=O)N[C@@H](CC(=O)O)C(=O)N[C@@H](C)C(=O)N[C@@H](CC(=O)O)C(=O)N[C@@H](CCCCN)C(=O)N[C@@H](CC(=O)O)C(=O)N[C@@H](CC(N)=O)C(=O)N[C@H](C(=O)N[C@@H](C)C(=O)N1CCC[C@H]1C(=O)N1CCC[C@H]1C(=O)N[C@H](C(=O)N[C@@H](CC(N)=O)C(=O)N[C@H](C(=O)NCC(=O)N[C@@H](CO)C(=O)N[C@@H](CC(N)=O)C(=O)NCC(=O)N1C[C@H](O)C[C@H]1C(N)=O)C(C)C)[C@@H](C)O)C(C)C)[C@@H](C)O [compound 64] (H-KCNTATCTVQRLAHQIYQFTDADKDNVAPPTNVGSNG[Hyp]-NH2; disulfide 2-7) | 0.012 nM | > 5000 nM | 2.700%

Second part, the compound after the results:

Row | EC50 [1] | EC50 [2] | Max ThT signal (%) [3] | SMILES
4 | 0.009 nM | > 5000 nM | 16.750% | CC[C@H](C)[C@H](NC(=O)[C@H](CCC(N)=O)NC(=O)[C@H](Cc1c[nH]cn1)NC(=O)[C@H](C)NC(=O)[C@H](CC(C)C)NC(=O)[C@H](CCCNC(N)=O)NC(=O)[C@H](CCC(N)=O)NC(=O)[C@@H](NC(=O)[C@@H](NC(=O)[C@@H]1CSSC[C@H](NC(=O)[C@@H](N)CCCCN)C(=O)N[C@@H](CC(N)=O)C(=O)N[C@@H]([C@@H](C)O)C(=O)N[C@@H](C)C(=O)N[C@@H]([C@@H](C)O)C(=O)N1)[C@@H](C)O)C(C)C)C(=O)N[C@@H](Cc1ccc(O)cc1)C(=O)N[C@@H](CCC(N)=O)C(=O)N[C@@H](Cc1ccccc1)C(=O)N[C@H](C(=O)N[C@@H](CC(=O)O)C(=O)N[C@@H](CCCCN)C(=O)N[C@@H](CC(=O)O)C(=O)N[C@@H](CCCCN)C(=O)N[C@@H](CC(=O)O)C(=O)N[C@@H](CC(N)=O)C(=O)N[C@H](C(=O)N[C@@H](C)C(=O)N1CCC[C@H]1C(=O)N[C@@H](CCCNC(=N)N)C(=O)N[C@H](C(=O)N[C@@H](CCC(=O)O)C(=O)N[C@H](C(=O)NCC(=O)N[C@@H](CO)C(=O)N[C@@H](CC(N)=O)C(=O)NCC(=O)N[C@@H](Cc1ccc(O)cc1)C(N)=O)C(C)C)[C@@H](C)O)C(C)C)[C@@H](C)O [compound 272] (H-KCNTATCTVQ[Cit]LAHQIYQFTDKDKDNVAPRTEVGSNGY-NH2; disulfide 2-7; N-terminus assumed)
5 | 0.02 nM | > 5000 nM | 19.850% | CC[C@H](C)[C@H](NC(=O)[C@H](CCC(N)=O)NC(=O)[C@H](Cc1c[nH]cn1)NC(=O)[C@H](C)NC(=O)[C@H](CC(C)C)NC(=O)[C@H](CCCNC(N)=O)NC(=O)[C@H](CCC(N)=O)NC(=O)[C@@H](NC(=O)[C@@H](NC(=O)[C@@H]1CSSC[C@H](NC(=O)CN)C(=O)N[C@@H](CCCNC(=N)N)C(=O)N[C@@H](Cc2ccccc2)C(=O)NCC(=O)N[C@@H]([C@@H](C)O)C(=O)N1)[C@@H](C)O)C(C)C)C(=O)N[C@@H](Cc1ccc(O)cc1)C(=O)N[C@@H](CCC(N)=O)C(=O)N[C@@H](Cc1ccccc1)C(=O)N[C@H](C(=O)N[C@@H](CC(=O)O)C(=O)N[C@@H](CCCCN)C(=O)N[C@@H](CC(=O)O)C(=O)N[C@@H](CCCCN)C(=O)N[C@@H](CC(=O)O)C(=O)N[C@@H](CC(N)=O)C(=O)N[C@H](C(=O)N[C@@H](C)C(=O)N1CCC[C@H]1C(=O)N[C@@H](CCCNC(=N)N)C(=O)N[C@H](C(=O)N[C@@H](CCCCN)C(=O)N[C@H](C(=O)N[C@@H](CO)C(=O)N1CCC[C@H]1C(=O)N[C@@H](CC(N)=O)C(=O)NCC(=O)N1C[C@H](O)C[C@H]1C(N)=O)[C@@H](C)CC)[C@@H](C)O)C(C)C)[C@@H](C)O [compound 275] (H-GCRFGTCTVQ[Cit]LAHQIYQFTDKDKDNVAPRTKISPNG[Hyp]-NH2; disulfide 2-7; N-terminus assumed)
6 | 0.235 nM | > 5000 nM | 0.600% | CC[C@H](C)[C@H](NC(=O)[C@H](CCC(N)=O)NC(=O)[C@H](Cc1c[nH]cn1)NC(=O)[C@H](C)NC(=O)[C@H](CC(C)C)NC(=O)[C@H](CCCNC(=N)N)NC(=O)[C@H](CCC(N)=O)NC(=O)[C@@H](NC(=O)[C@@H](NC(=O)[C@@H]1CSSC[C@H](NC(=O)CN)C(=O)N[C@@H](CCCNC(=N)N)C(=O)N[C@@H]([C@@H](C)O)C(=O)NCC(=O)N[C@@H]([C@@H](C)O)C(=O)N1)[C@@H](C)O)C(C)C)C(=O)N[C@@H](Cc1ccc(O)cc1)C(=O)N[C@@H](CCC(N)=O)C(=O)N[C@@H](Cc1ccccc1)C(=O)N[C@H](C(=O)N[C@@H](CC(N)=O)C(=O)N[C@@H](CCCCN)C(=O)N[C@@H](CC(=O)O)C(=O)N[C@@H](CCCCN)C(=O)N[C@@H](CC(=O)O)C(=O)N[C@@H](CC(N)=O)C(=O)N[C@H](C(=O)N[C@@H](C)C(=O)N1CCC[C@H]1C(=O)N[C@@H](CCCNC(=N)N)C(=O)N[C@@H](CO)C(=O)N[C@@H](CCCCN)C(=O)N[C@H](C(=O)N[C@@H](CO)C(=O)N1CCC[C@H]1C(=O)N[C@@H](CCC(N)=O)C(=O)N[C@@H](Cc1ccccc1)C(=O)N1C[C@H](O)C[C@H]1C(N)=O)[C@@H](C)CC)C(C)C)[C@@H](C)O [compound 238] (H-GCRTGTCTVQRLAHQIYQFTNKDKDNVAPRSKISPQF[Hyp]-NH2; disulfide 2-7; N-terminus assumed)
